Source: PubChem BioAssay (NCI)
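Compound exposure: 48 hours, 5 concentrations, 96-well plates. GI50 is the concentration that inhibits growth by half. TGI is the concentration that stops growth completely.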

Columns and labels:
Experiment in all cases: NCI tumour cell line growth inhibition, 48 h
SK-MEL-2 melanoma = test system: SK-MEL-2 melanoma
EKVX NSCLC = test system: EKVX NSCLC
HCT-15 colon = test system: HCT-15 colon
HOP-62 NSCLC = test system: HOP-62 NSCLC
OVCAR-8 ovarian = test system: OVCAR-8 ovarian
A549 NSCLC = test system: A549 NSCLC
OVCAR-3 ovarian = test system: OVCAR-3 ovarian
U251 CNS = test system: U251 CNS
SW-620 colon = test system: SW-620 colon
HT29 colon = test system: HT29 colon

Structure (SMILES) | TGI (SK-MEL-2 melanoma) [µM] | TGI (EKVX NSCLC) [µM] | TGI (HCT-15 colon) [µM] | TGI (HOP-62 NSCLC) [µM] | TGI (OVCAR-8 ovarian) [µM] | TGI (A549 NSCLC) [µM] | TGI (OVCAR-3 ovarian) [µM] | TGI (U251 CNS) [µM] | TGI (SW-620 colon) [µM] | TGI (HT29 colon) [µM] | GI50 (SK-MEL-2 melanoma) [µM] | GI50 (EKVX NSCLC) [µM] | GI50 (HCT-15 colon) [µM] | GI50 (HOP-62 NSCLC) [µM] | GI50 (OVCAR-8 ovarian) [µM] | GI50 (A549 NSCLC) [µM] | GI50 (OVCAR-3 ovarian) [µM] | GI50 (U251 CNS) [µM] | GI50 (SW-620 colon) [µM] | GI50 (HT29 colon) [µM]
O=C1c2cc(O)c(O)cc2O[C@H](c2ccc(O)c(O)c2)[C@H]1O | > 100 | > 100 | > 100 | > 100 | > 100 | > 100 | > 100 | > 100 | > 100 | > 100 |  |  |  |  |  |  |  |  |  | 
Oc1ccc(C(=C(Br)c2ccccc2)c2ccc(O)cc2)cc1 | 18.3 | 26.2 | 14.3 | 22.2 | 22.2 | 19.4 | 8.99 | 15.3 | 14.9 | 4.78 |  |  |  |  |  |  |  |  |  | 
CSc1nncc(-c2cc3c(c(SC)n2)CCCC3)n1 | > 100 | > 100 | > 100 | > 100 | > 100 | > 100 | > 100 | > 100 | > 100 | > 100 |  |  |  |  |  |  |  |  |  | 
O=[N+]([O-])c1ccc(/C=N/Nc2nc3ccccc3[nH]2)o1 |  | 67.2 | 42.8 | 35.4 | 38 | 30.4 | 28.1 | 92.8 | 28.3 | 68 |  |  |  |  |  |  |  |  |  | 
O=C(CSCC(=O)N/N=C/c1cccc(O)c1)N/N=C/c1cccc(O)c1 | > 100 | > 100 | > 100 | > 100 | > 100 | > 100 | > 100 | > 100 | > 100 | > 100 |  |  |  |  |  |  |  |  |  | 
C=C(C#N)C(=O)OCC(CC)CC.C=C(C#N)C(=O)OCC(CC)CC.CS(C)=O.CS(C)=O.Nc1c(N=Nc2ccc(-c3ccc(N=Nc4cc(S(=O)(=O)[O-])c5ccccc5c4N)cc3)cc2)cc(S(=O)(=O)[O-])c2ccccc12.[Pt+2] | 50.4 | 63.3 | > 69.3 | > 100 | 42.3 | > 100 | > 58 | > 100 | 46.2 | > 69.7 | 21.2 | 26 | 33.2 | > 82.8 | 19.2 | > 86.8 | 25.9 | 46.7 | 25 | 27.2
O=C1c2cc3c(cc2-c2c1c1ccc(Cl)cc1c(=O)n2C[C@H](O)CO)OCO3 | 1.11 | 1.52 | 1.28 | 1.51 | 2.98 | 0.72 | 0.316 | 1.28 | 1.02 | > 100 | 0.284 | 0.153 | 0.11 | 0.022 | 0.0521 | 0.0568 | 0.0615 | 0.0198 | 0.02 | 0.0348
O=C1C(Cl)N(c2ccccc2Cl)C1c1c[nH]c2ccccc12 (centres undefined) | > 100 | > 100 |  | > 100 | > 100 | > 100 | > 100 | > 100 | > 100 | > 100 |  |  |  |  |  |  |  |  |  | 
CCOC(=O)c1c2c(n(-c3ccc(C)cc3)c1C)-c1ccccc1C(=O)C2(C(=O)OCC)C(=O)OCC | > 88.5 | > 88.2 | > 100 | > 100 | 98.4 | > 100 | 69.2 | > 100 | > 100 | > 84.3 |  |  |  |  |  |  |  |  |  | 
CCN(CC)CCNc1ccc2ncn3c4ccc(O)cc4c(=O)c1c23 | 21.4 | 21.9 | 13 | 11.6 | 9.55 | 7 | 13.6 | 2.75 | 8.84 | 7.06 |  |  |  |  |  |  |  |  |  | 
CC(SC(=S)N1CCOCC1)C(=O)Nc1nnc(-c2ccc(Cl)cc2)o1 (centres undefined) | > 100 |  | > 100 | > 100 | > 100 | > 100 | > 100 | > 100 | > 100 | > 100 |  |  |  |  |  |  |  |  |  | 
COc1ccc(OC)c2sc(N3C(=O)/C(=C/c4cccc(Oc5ccccc5)c4)N=C3c3ccccc3)nc12 | > 100 | > 100 | > 100 | > 100 | > 100 | > 100 | > 100 | > 100 | > 100 | > 100 |  |  |  |  |  |  |  |  |  | 
O=C1CC(O)c2cscc21 (centres undefined) | > 100 | > 100 | > 100 | > 100 | > 100 |  | > 100 | > 100 | > 100 | > 100 |  |  |  |  |  |  |  |  |  | 
COc1ccc2nc3cc(Cl)ccc3c(NC(C)CCCN(CCCl)CCCl)c2c1 (centres undefined) | 4.54 | 18.2 | 6.56 | 7.38 | 4.32 | 7.04 | 6.87 | 5.65 | 2.07 | 2.81 |  |  |  |  |  |  |  |  |  | 
COC(=O)c1cc2c(cc1Cl)Sc1nnc(Nc3ccccc3)n1S2(=O)=O | 8.79 | 19.9 | 6.05 | 5.52 | > 33.1 | 26.9 | 3.36 | 11.6 | 11.1 | 5.17 |  |  |  |  |  |  |  |  |  | 
Cc1cccc2sc(NC(=O)NS(=O)(=O)n3cnc4ccccc43)nc12 | 35.6 | > 100 | > 100 | > 100 | 67.1 | > 100 | 46.8 | 48.2 | > 100 | > 100 |  |  |  |  |  |  |  |  |  | 
COc1ccc2nc3c(c(N)c2c1)C1CCC3C1(C)C (centres undefined) | 67.1 | > 100 | > 100 | 47.9 | > 100 | > 100 | > 100 | > 100 | > 100 | > 100 |  |  |  |  |  |  |  |  |  | 
O=S(=O)(/N=C(\NO)Nc1ccc(Cl)cc1)c1cc(C(F)(F)F)cc(C(F)(F)F)c1 | 32.7 | 30.6 | 38.7 | 36.9 | 34.5 | 34.5 | 34.8 | 31.4 | > 100 | 34.3 |  |  |  |  |  |  |  |  |  | 
Cc1ccc(S(=O)(=O)N(CC(O)COc2ccccc2)c2c(F)cccc2F)cc1 (centres undefined) | 32.5 | 95.7 | 37 | 42.7 | 35.5 | 40.1 | 30.3 | 29.1 | 67.7 | 36.3 |  |  |  |  |  |  |  |  |  | 
C=CCNC(=O)C(C)C1CCC2(C)C=CC(=O)C(C)=C2C1O (centres undefined) | > 100 | > 100 | > 100 | > 100 | > 100 | > 100 | > 100 | > 100 | > 100 | > 100 |  |  |  |  |  |  |  |  |  | 
Cc1ccc(S(=O)(=O)OC2CC(C(C)(C)C)CCC2c2ccccc2)cc1 (centres undefined) | > 100 | > 100 | > 100 | > 100 | > 100 | > 100 | > 100 | > 100 | > 100 | > 100 |  |  |  |  |  |  |  |  |  | 
O=C1c2ccccc2C(=O)c2[nH]cnc21 | > 100 | > 100 | > 100 | > 100 | > 100 | > 100 | 66.2 | > 100 |  | > 100 |  |  |  |  |  |  |  |  |  | 
NCCOc1cccc(C2(N3CCCCC3)CCCCC2)c1 | 52.2 | 62.6 | > 100 | > 100 | > 100 | > 100 | > 100 | 35.1 | > 100 | 41.2 |  |  |  |  |  |  |  |  |  | 
O=c1[nH]c2[nH]c(=S)[nH]c(=S)c2[nH]1 | > 100 | > 100 | > 100 | > 100 | > 100 | > 100 |  | > 100 | > 100 | > 100 |  |  |  |  |  |  |  |  |  | 
